Measurements: publication PMC3454376, “Salidroside Improves Behavioral and Histological Outcomes and Reduces Apoptosis via PI3K/Akt Signaling after Experimental Traumatic Brain Injury” (PLoS ONE, 2012)

Key:
p-FOXO1 = test: Western blot, injured cortex; assay type: in vivo, mice
Method: (§1) Mice were anesthetized and positioned in a stereotaxic frame. LY294002 (200 nM in 0.5 µL of saline) or equal amount of physiological saline was intracerebroventricularly (icv) injected at 30 min before CCI as previously described. A 1 mm cranial burr hole was drilled into the skull. A 30-gauge needle on a Hamilton syringe was implanted into the lateral ventricle using stereotactic coordinates: 1.5 mm posterior to bregma and 1.0 mm right lateral to the midline, 2 mm in depth. LY294002 or saline was infused into the brain at a rate of 0.05 µL/min over 10 min with an infusion pump (KDS 310, KD Scientific Inc., Holliston, MA, USA), and the needle was left in place for an additional 20 min to prevent reflux. After the needle was removed, CCI procedure was conducted immediately. Sham-operated mice were infused icv with saline, but were not subjected to CCI.
(§2) Three sets of experiments were performed. The first set was to investigate the protective effects of salidroside. All animals were randomized into 1 of 3 groups (sham injury, CCI + vehicle, CCI + SALD 20). Surgery/injury, behavioral testing, and tissue analyses were performed by different individuals. Behavioral testing and tissue analyses were performed by individuals blinded to the treatment group. Salidroside (Cayman Chemical, Ann Arbor, MI, USA) dissolved in normal saline (0.25 mL) or a corresponding volume of vehicle (saline) was administered intraperitoneally 10 min following injury. Testing after injury was completed as follows: 1) behavioral testing at days 1, 4, 7, 14, 21, and 28 (n = 8–10 mice/group); 2) cresyl violet staining at day 28 (n = 9 mice/group); 3) histology, determination of brain water content, and western blot analysis at day 1 or 3 (n = 5–6 mice/group). To determine the optimal dose of salidroside, a pilot study was performed using 2 different doses (20 and 50 mg/kg) administered 10 min after injury, and neurological deficits and tissue damage were evaluated as the main outcomes. […] The second set of experiment was to assess the effect of the inhibition of PI3K/Akt with the specific PI3K inhibitor, LY294002 (Cell Signaling Technology, Danvers, MA, USA), on salidroside effects. Animals were randomized into 4 groups. Mice received either: 1) icv pretreatment of LY294002 followed by SALD 20 after CCI (S20Y group); or 2) icv pretreatment of saline (vehicle control) followed by SALD 20 after CCI (S20V group). 3) Mice were infused icv with saline and were subjected to sham injury. 4) Mice were infused icv with LY294002 and were subjected to sham injury. Testing after injury was completed as follows: 1) cresyl violet staining at day 28 (n = 6 mice/group); 2) western blot analysis at day 1 (n = 6 mice/group). The third set of experiment was performed to examine the neuroprotective time window afforded by salidroside. Mice received intraperitoneal SALD 20 or vehicle (saline) at 3 or 6 h following CCI and were sacrificed 1 day later for FJB staining and western blot analysis (n = 6 mice/group).
(§3) Brains of injured or sham animals were collected 1 day and 3 days post CCI or sham surgery, and a 4 mm coronal section from the injured area over the parietal cortex and ipsilateral hippocampus were collected. The protein samples were obtained from tissue homogenates in 300 µL of ice-cold reagent (T-PER reagent; Pierce Biotechnology, Rockford, IL, USA) with a complete mini protease inhibitor cocktail (Roche Molecular Biochemicals) centrifuged at 14000g for 30 min. Protein concentration was determined by Bradford reagent spectrophotometrically at A595. Equal amounts of protein samples were denatured in gel-loading buffer at 100°C for 5 min, and then loaded onto sodium dodecyl sulfate-polyacrylamide gels to be separated. Separated proteins were transferred to Immobilon-P membranes (Millipore, Billerica, MA, USA), blocked with the use of 5% milk in PBST and probed with primary antibodies. […]

p-Bad = test: Western blot, injured cortex; assay type: in vivo, mice
Method: as §1, §2, §3

p-Akt Ser473 = test: Western blot, injured cortex; assay type: in vivo, mice
Method: as §1, §2, §3

p-Akt Thr308 = test: Western blot, injured cortex; assay type: in vivo, mice; details: icv LY294002 30 min before CCI + SALD 20 mg/kg ip (S20LY); day 1; P<0.05
Method: as §1, §2, §3

[1] = system: mice subjected to controlled cortical impact injury; test: Residual cerebral tissue ratio, cresyl violet staining; assay type: in vivo; details: icv LY294002 30 min before CCI, then SALD 20 mg/kg ip (S20LY group); day 28; P<0.05 vs S20S
Method: All animal procedures were approved by the Animal Research Committee at Cheng Hsin General Hospital (Animal permit number CHIACUC 101–08), and all procedures complied with the Guide for the Care and Use of Laboratory Animals published by the US National Institutes of Health (NIH Publication No. 85–23, revised 1996). Animals were housed under a 12-h light/dark cycle and at constant temperature (21–25°C) and humidity (45–50%). They were allowed free access to pellet chow and water. TBI in mice was induced by a CCI injury model as previously described. Briefly, 8-week-old male C57BL/6 mice (weighing 22–25 g) were anesthetized through the use of intraperitoneal injection of sodium pentobarbital (65 mg/kg; Rhone Merieux, Harlow, UK) and placed in a stereotaxic frame. A 5 mm craniotomy was performed over the right parietal cortex, centered on the coronal suture and 0.1 mm lateral to the sagittal suture, and injury to dura was avoided. Injury was induced using a pneumatic piston with a rounded metal tip (2.5 mm diameter) that was angled 22.5° to the vertical so that the tip was perpendicular with the brain surface at the center of the craniotomy. The impact, with a velocity of […] and a deformation depth of 2 mm below the dura, was applied. The bone flap was immediately replaced and sealed, and the scalp was sutured. Body temperature was monitored throughout the surgery by a rectal probe; temperature was maintained at 37.0±0.5°C using a heated pad. Mice were placed in a heated cage to maintain body temperature, while recovering from anesthesia. Sham-operated mice underwent the same procedure as injured mice, but without CCI.
as §1
Three sets of experiments were performed. […] To determine the optimal dose of salidroside, a pilot study was performed using 2 different doses (20 and 50 mg/kg) administered 10 min after injury, and neurological deficits and tissue damage were evaluated as the main outcomes. […]

[2] = icv LY294002 30 min before CCI + SALD 20 mg/kg ip, day 1, P>0.05

For `O=c1cc(N2CCOCC2)oc2c(-c3ccccc3)cccc12` [LY294002, reference compound], which “p-FOXO1 level, % of the S20V level” value (p-FOXO1; icv LY294002 30 min before CCI + SALD 20 mg/kg ip (S20LY), day 1, P<0.05) is on record?
The value was 41.6%.

And the “FOXO1 phosphorylation in sham-operated mice” value (p-FOXO1; icv LY294002, sham injury)?
Its value is “did not affect”.

What about the “p-Bad level, S20LY versus S20V group” value (p-Bad; [2]) of the same compound?
The value was “similar”.

What about the “Bad phosphorylation in sham-operated mice” value (p-Bad; icv LY294002, sham injury) of the same compound?
The value was “did not affect”.

And the “p-Akt Ser473 level, S20LY versus S20V group” value (p-Akt Ser473; [2])?
Its value is “similar”.

And the “Akt phosphorylation (Ser473 and Thr308) in sham-operated mice” value (p-Akt Ser473; icv LY294002, sham injury)?
The value was “did not affect”.

What about the “p-Akt Thr308 level, % of the S20V level” value (p-Akt Thr308) of the same compound?
The value was 58.1%.

What about the “residual cerebral tissue ratio” value [1] of the same compound?
Its value is 71.0±6.3%.
